Experimental data taken from ChEMBL document CHEMBL1137579, “Discovery of 1-[2-[(1S)-(3-dimethylaminopropionyl)amino-2-methylpropyl]-4-methylphenyl]-4-[(2R)-methyl-3-(4-chlorophenyl)-propionyl]piperazine as an orally active antagonist of the melanocortin-4 receptor for the potential treatment of cachexia” (J Med Chem, 2007).
≈ marks a conversion by molar mass, not a printed value. Calls of active or inactive are those of the source. No cut-off for these calls is given here.

What was measured:
Caco-2 = assay: Permeability across Caco-2 cell membrane; type: ADME, cell-based; conditions: human
[1] = target: Melanocortin receptor 4 (Homo sapiens) (UniProt P32245); assay: Activity at MC4R expressed in HEK293 cells assessed as stimulation of cAMP release at 10 uM relative to alpha-MSH; type: functional, cell-based
Chain of Melanocortin receptor 4 (Homo sapiens) (P32245 whole entry): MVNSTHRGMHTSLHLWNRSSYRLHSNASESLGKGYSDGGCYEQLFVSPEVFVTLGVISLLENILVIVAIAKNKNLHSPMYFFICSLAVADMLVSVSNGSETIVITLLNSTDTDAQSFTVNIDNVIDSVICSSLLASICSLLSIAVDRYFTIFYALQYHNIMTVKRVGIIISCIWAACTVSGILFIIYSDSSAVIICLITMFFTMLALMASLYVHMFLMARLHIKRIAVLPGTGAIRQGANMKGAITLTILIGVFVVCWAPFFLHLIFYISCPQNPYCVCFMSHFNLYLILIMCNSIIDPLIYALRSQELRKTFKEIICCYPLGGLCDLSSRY

Cytochrome P450 3A4 = Cytochrome P450 3A4 (Homo sapiens, UniProt P08684); assay: Inhibition of CYP3A4; type: ADME
Chain of Cytochrome P450 3A4 (P08684 whole entry): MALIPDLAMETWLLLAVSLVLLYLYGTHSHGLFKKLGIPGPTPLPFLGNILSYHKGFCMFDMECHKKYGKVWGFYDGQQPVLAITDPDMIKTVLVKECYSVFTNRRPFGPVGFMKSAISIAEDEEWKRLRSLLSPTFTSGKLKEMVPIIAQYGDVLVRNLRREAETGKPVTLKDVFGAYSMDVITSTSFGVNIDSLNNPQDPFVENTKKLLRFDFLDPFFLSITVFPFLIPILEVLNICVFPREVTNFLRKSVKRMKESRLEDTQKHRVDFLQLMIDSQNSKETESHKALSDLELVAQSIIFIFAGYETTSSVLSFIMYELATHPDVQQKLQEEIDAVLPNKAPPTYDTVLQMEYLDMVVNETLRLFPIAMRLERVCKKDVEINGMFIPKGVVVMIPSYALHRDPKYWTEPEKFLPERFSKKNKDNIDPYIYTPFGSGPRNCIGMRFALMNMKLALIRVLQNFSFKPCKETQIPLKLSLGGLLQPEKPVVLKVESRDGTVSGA

[2] = AUC in rat at 10 mg/kg, po; type: ADME, organism-based; set-up: dose 10 mg/kg, route oral; conditions: plasma
[3] = Tmax in rat at 2.5 mg/kg, iv or 10 mg/kg, po; type: ADME, organism-based; conditions: in vivo
[4] = Volume of distribution in rat at 2.5 mg/kg, iv or 10 mg/kg, po; type: ADME, organism-based; conditions: in vivo
[5] = Cmax in rat at 2.5 mg/kg, iv or 10 mg/kg, po; type: ADME, organism-based; conditions: in vivo
[6] = Oral bioavailability in rat at 10 mg/kg, po; type: ADME, organism-based; conditions: in vivo
[7] = Plasma clearance in rat at 5 mg/kg, iv
[8] = Drug level in rat brain at 10 mg/kg, po after 1 hr; type: ADME, organism-based; set-up: dose 10 mg/kg, route oral; conditions: read-out: Drug uptake
[9] = Half life in rat at 2.5 mg/kg, iv or 10 mg/kg, po; type: ADME, organism-based; conditions: in vivo
[10] = Drug level in rat brain at 10 mg/kg, po after 4 hrs; type: ADME, organism-based; set-up: dose 10 mg/kg, route oral; conditions: read-out: Drug uptake
[11] = Oral bioavailability in Beagle dog at 10 mg/kg, po; type: ADME, organism-based, Canis lupus familiaris; conditions: in vivo
[12] = AUC in CD1 mouse at 2.5 mg/kg, iv; type: ADME, organism-based; set-up: dose 2.5 mg/kg, route intravenous; conditions: plasma
[13] = Cmax in CD1 mouse brain at 10 mg/kg, po; type: ADME, organism-based; set-up: dose 10 mg/kg, route oral
[14] = Ratio of drug level in brain to plasma in rat at 5 mg/kg, iv or 10 mg/kg, po after 4 hrs; type: ADME, organism-based
[15] = target: Melanocyte-stimulating hormone receptor (Homo sapiens) (UniProt Q01726); assay: Displacement of [125I]NDP-MSH from human MC1R
Chain of Melanocyte-stimulating hormone receptor (Homo sapiens) (Q01726 whole entry, looked up): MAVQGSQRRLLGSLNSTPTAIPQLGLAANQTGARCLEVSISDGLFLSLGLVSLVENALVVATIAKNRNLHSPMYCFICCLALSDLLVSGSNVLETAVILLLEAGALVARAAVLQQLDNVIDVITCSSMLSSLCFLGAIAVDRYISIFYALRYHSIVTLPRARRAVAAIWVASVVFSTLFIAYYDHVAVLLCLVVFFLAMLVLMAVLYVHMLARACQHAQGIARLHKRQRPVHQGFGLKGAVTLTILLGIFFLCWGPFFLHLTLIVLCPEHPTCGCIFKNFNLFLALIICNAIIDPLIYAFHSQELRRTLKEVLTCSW

[16] = Tmax in CD1 mouse at 10 mg/kg, po; type: ADME, organism-based; set-up: dose 10 mg/kg, route oral; conditions: in vivo, read-out: Tm
Mus musculus [17] = assay: Increase in food intake in C57BL/6J mouse at 5 mg/kg on day 11; type: functional, organism-based; set-up: dose 5 mg/kg
[18] = Tmax in Sprague-Dawley rat brain at 10 mg/kg, po; type: ADME, organism-based; set-up: dose 10 mg/kg, route oral
Mus musculus [19] = assay: Increase in food intake in C57BL/6J mouse at 20 mg/kg on day 12; type: functional, organism-based; set-up: dose 20 mg/kg
Mus musculus [20] = assay: AUC in CD1 mouse brain at 10 mg/kg, po; type: ADME, organism-based; set-up: dose 10 mg/kg, route oral; conditions: in vivo
[21] = Oral bioavailability in rhesus monkey at 10 mg/kg, po; type: ADME, organism-based, Macaca mulatta; conditions: in vivo
[22] = AUC in CD1 mouse at 10 mg/kg, po; type: ADME, organism-based; set-up: dose 10 mg/kg, route oral; conditions: plasma
[23] = AUC in Sprague-Dawley rat at 10 mg/kg, po; type: ADME, organism-based; set-up: dose 10 mg/kg, route oral; conditions: plasma
[24] = Tmax in rhesus monkey at 10 mg/kg, po; type: ADME, organism-based, Macaca mulatta; set-up: dose 10 mg/kg, route oral; conditions: in vivo, read-out: Tm
[25] = Cmax in Sprague-Dawley rat brain at 10 mg/kg, po; type: ADME, organism-based; set-up: dose 10 mg/kg, route oral
[26] = Tmax in rat at 5 mg/kg, iv or 10 mg/kg, po; type: ADME, organism-based; conditions: in vivo
[27] = AUC in rhesus monkey at 5 mg/kg, iv; type: ADME, organism-based, Macaca mulatta; set-up: dose 5 mg/kg, route intravenous; conditions: plasma
[28] = Cmax in Beagle dog at 10 mg/kg, po; type: ADME, organism-based, Canis lupus familiaris; set-up: dose 10 mg/kg, route oral; conditions: in vivo
[29] = Oral bioavailability in CD1 mouse at 10 mg/kg, po; type: ADME, organism-based; conditions: in vivo
[30] = AUC in Beagle dog at 5 mg/kg, iv; type: ADME, organism-based, Canis lupus familiaris; set-up: dose 5 mg/kg, route intravenous; conditions: plasma
[31] = Cmax in CD1 mouse at 10 mg/kg, po; type: ADME, organism-based; set-up: dose 10 mg/kg, route oral; conditions: in vivo
Mus musculus [32] = assay: Increase in food intake in C57BL/6J mouse at 5 mg/kg on day 10; type: functional, organism-based; set-up: dose 5 mg/kg
[33] = Tmax in CD1 mouse brain at 10 mg/kg, po; type: ADME, organism-based; set-up: dose 10 mg/kg, route oral
[34] = Volume of distribution in rhesus monkey at 5 mg/kg, iv; type: ADME, organism-based, Macaca mulatta; set-up: dose 5 mg/kg, route intravenous; conditions: in vivo
[35] = Cmax in Sprague-Dawley rat at 10 mg/kg, po; type: ADME, organism-based; set-up: dose 10 mg/kg, route oral; conditions: in vivo
Mus musculus [36] = assay: Increase in food intake in C57BL/6J mouse at 20 mg/kg on day 10; type: functional, organism-based; set-up: dose 20 mg/kg
[37] = Aqueous solubility at pH 7.0; type: physicochemical; conditions: aqueous medium
[38] = Ratio of drug level in brain to plasma in rat at 5 mg/kg, iv or 10 mg/kg, po after 1 hr; type: ADME, organism-based
[39] = Dissociation constant, pKa of the compound; type: physicochemical
[40] = Aqueous solubility at pH 3.0; type: physicochemical; conditions: aqueous medium
[41] = AUC in CD1 Beagle dog at 10 mg/kg, po; type: ADME, organism-based, Canis lupus familiaris; set-up: dose 10 mg/kg, route oral; conditions: plasma
Mus musculus [42] = assay: Increase in food intake in C57BL/6J mouse at 5 mg/kg on day 12; type: functional, organism-based; set-up: dose 5 mg/kg
[43] = Volume of distribution in rat at 5 mg/kg, iv or 10 mg/kg, po; type: ADME, organism-based; conditions: in vivo
[44] = Tmax in Sprague-Dawley rat at 10 mg/kg, po; type: ADME, organism-based; set-up: dose 10 mg/kg, route oral; conditions: in vivo, read-out: Tm
[45] = AUC in […] rhesus monkey at 10 mg/kg, po; type: ADME, organism-based, Macaca mulatta; set-up: dose 10 mg/kg, route oral; conditions: plasma
[46] = Volume of distribution in CD1 mouse at 2.5 mg/kg, iv; type: ADME, organism-based; set-up: dose 2.5 mg/kg, route intravenous; conditions: in vivo
Mus musculus [47] = assay: Increase in food intake in C57BL/6J mouse at 20 mg/kg on day 11; type: functional, organism-based; set-up: dose 20 mg/kg
[48] = Cmax in rhesus monkey at 10 mg/kg, po; type: ADME, organism-based, Macaca mulatta; set-up: dose 10 mg/kg, route oral; conditions: in vivo
[49] = Ratio of drug level in brain to plasma in CD1 mouse at 10 mg/kg, po; type: ADME, organism-based; set-up: dose 10 mg/kg, route oral
[50] = Tmax in Beagle dog at 10 mg/kg, po; type: ADME, organism-based, Canis lupus familiaris; set-up: dose 10 mg/kg, route oral; conditions: in vivo, read-out: Tm
[51] = Volume of distribution in Beagle dog at 5 mg/kg, iv; type: ADME, organism-based, Canis lupus familiaris; set-up: dose 5 mg/kg, route intravenous; conditions: in vivo
Rattus norvegicus = assay: AUC in Sprague-Dawley rat brain at 10 mg/kg, po; type: ADME, organism-based; set-up: dose 10 mg/kg, route oral; conditions: in vivo
[52] = Cmax in rat at 5 mg/kg, iv or 10 mg/kg, po; type: ADME, organism-based; conditions: in vivo
[53] = Ratio of drug level in brain to plasma in rat at 2.5 mg/kg, iv or 10 mg/kg, po after 4 hrs; type: ADME, organism-based
[54] = Ratio of drug level in brain to plasma in rat at 2.5 mg/kg, iv or 10 mg/kg, po after 1 hr; type: ADME, organism-based

CNCC(=O)N[C@H](c1cc(C)ccc1N1CCN(C(=O)[C@H](C)Cc2ccc(Cl)cc2F)CC1)C(C)C
permeability (Caco-2): 0.8 10^-6 cm/s
Activity [1]: 12%
IC50 (Cytochrome P450 3A4): 6.9 µM

Cc1ccc(N2CCN(C(=O)[C@H](C)Cc3ccc(Cl)cc3)CC2)c([C@@H](N)C(C)C)c1
permeability (Caco-2): 5 10^-6 cm/s

Cc1ccc(N2CCN(C(=O)[C@H](C)Cc3ccc(Cl)cc3F)CC2)c([C@@H](N)C(C)C)c1
Activity [1]: 5%

CNCCN[C@H](c1cc(C)ccc1N1CCN(C(=O)[C@H](C)Cc2ccc(Cl)cc2F)CC1)C(C)C
permeability (Caco-2): 0.3 10^-6 cm/s
AUC [2]: 299 ng·h/mL
Tmax [3]: 6 h
Vd [4]: 95 L/kg
Cmax [5]: 22 ng/mL
Activity [1]: 7%
bioavailability [6]: 13%
clearance [7]: 60 mL/min/kg
concentration at 1 h [8]: < 5 ng/g
half-life [9]: 17 h
concentration at 4 h [10]: < 5 ng/g

Cc1ccc(N2CCN(C(=O)[C@H](C)Cc3ccc(Cl)cc3F)CC2)c([C@@H](NC(=O)CCN(C)C)C(C)C)c1
AUC [2]: 1470 ng·h/mL
Tmax [3]: 4.7 h
Vd [4]: 4.2 L/kg
Cmax [5]: 134 ng/mL
bioavailability [6]: 13%
concentration at 1 h [8]: 8 ng/g
concentration at 4 h [10]: 31 ng/g

Cc1ccc(N2CCN(C(=O)[C@H](C)Cc3ccc(Cl)cc3)CC2)c([C@@H](NC(=O)CCN(C)C)C(C)C)c1
bioavailability [11]: 19%
permeability (Caco-2): 6.2 10^-6 cm/s
AUC [12]: 1410 ng·h/mL
Cmax [13]: 91 ng/g
AUC [2]: 1400 ng·h/mL
Kp at 4 h [14]: 0.4
Activity [15]: 50%
Tmax [16]: 0.5 h
Activity (Mus musculus [17]): Active
bioavailability [6]: 43%
Tmax [18]: 6 h
Activity (Mus musculus [19]): Active
AUC (Mus musculus [20]): 367 ng·h/g
bioavailability [21]: 19%
AUC [22]: 2530 ng·h/mL
AUC [23]: 1520 ng·h/mL
Tmax [24]: 1.8 h
Cmax [25]: 41 ng/g
Tmax [26]: 4.7 h
AUC [27]: 10300 ng·h/mL
Cmax [28]: 262 ng/mL
bioavailability [29]: 32%
AUC [30]: 8200 ng·h/mL
Cmax [31]: 946 ng/mL
Activity (Mus musculus [32]): Active
Tmax [33]: 0.3 h
Vd [34]: 2 L/kg
Cmax [35]: 279 ng/mL
Activity (Mus musculus [36]): Active
solubility [37]: 33 mg/mL (≈ 62.6 mM)
Kp at 1 h [38]: 0.2
pKa [39]: 7.8
solubility [40]: > 71 mg/mL
AUC [41]: 2860 ng·h/mL
Activity (Mus musculus [42]): Active
Vd [43]: 13 L/kg
concentration at 1 h [8]: 20 ng/g
Tmax [44]: 2.7 h
AUC [45]: 3860 ng·h/mL
Vd [46]: 4.1 L/kg
Activity (Mus musculus [47]): Active
Cmax [48]: 761 ng/mL
Kp [49]: 0.15
Tmax [50]: 1.7 h
Vd [51]: 5.9 L/kg
AUC (Rattus norvegicus): 254 ng·h/g
Cmax [52]: 110 ng/mL
concentration at 4 h [10]: 33 ng/g

CNCCC(=O)N[C@H](c1cc(C)ccc1N1CCN(C(=O)[C@H](C)Cc2ccc(Cl)cc2)CC1)C(C)C
permeability (Caco-2): 1.2 10^-6 cm/s
AUC [2]: 563 ng·h/mL
Tmax [3]: 3.3 h
Vd [4]: 20 L/kg
Cmax [5]: 57 ng/mL
Activity [15]: 43%
bioavailability [6]: 15%
concentration at 1 h [8]: < 5 ng/g
concentration at 4 h [10]: < 5 ng/g

Cc1ccc(N2CCN(C(=O)[C@H](C)Cc3ccc(Cl)cc3)CC2)c([C@@H](NC(=O)CCN)C(C)C)c1
permeability (Caco-2): 0.3 10^-6 cm/s
Activity [15]: 42%

Cc1ccc(N2CCN(C(=O)[C@H](C)Cc3ccc(Cl)cc3C)CC2)c([C@@H](N)C(C)C)c1
Activity [1]: 2%

Cc1ccc(N2CCN(C(=O)[C@H](C)Cc3ccc(Cl)cc3C)CC2)c([C@@H](NC(=O)CCN(C)C)C(C)C)c1
permeability (Caco-2): 1.9 10^-6 cm/s
AUC [2]: 1950 ng·h/mL
Tmax [3]: 4 h
Vd [4]: 4.3 L/kg
Cmax [5]: 208 ng/mL
Kp at 4 h [53]: 0.3
bioavailability [6]: 5.6%
Kp at 1 h [54]: 0.1
concentration at 1 h [8]: 9 ng/g
concentration at 4 h [10]: 42 ng/g
